The target of test [1] is T1, p-AXL (Homo sapiens, UniProt P30530).
T1 construct: expressed in transfected cells; host or cells: HEK293T
T1 sequence (P30530 26-894): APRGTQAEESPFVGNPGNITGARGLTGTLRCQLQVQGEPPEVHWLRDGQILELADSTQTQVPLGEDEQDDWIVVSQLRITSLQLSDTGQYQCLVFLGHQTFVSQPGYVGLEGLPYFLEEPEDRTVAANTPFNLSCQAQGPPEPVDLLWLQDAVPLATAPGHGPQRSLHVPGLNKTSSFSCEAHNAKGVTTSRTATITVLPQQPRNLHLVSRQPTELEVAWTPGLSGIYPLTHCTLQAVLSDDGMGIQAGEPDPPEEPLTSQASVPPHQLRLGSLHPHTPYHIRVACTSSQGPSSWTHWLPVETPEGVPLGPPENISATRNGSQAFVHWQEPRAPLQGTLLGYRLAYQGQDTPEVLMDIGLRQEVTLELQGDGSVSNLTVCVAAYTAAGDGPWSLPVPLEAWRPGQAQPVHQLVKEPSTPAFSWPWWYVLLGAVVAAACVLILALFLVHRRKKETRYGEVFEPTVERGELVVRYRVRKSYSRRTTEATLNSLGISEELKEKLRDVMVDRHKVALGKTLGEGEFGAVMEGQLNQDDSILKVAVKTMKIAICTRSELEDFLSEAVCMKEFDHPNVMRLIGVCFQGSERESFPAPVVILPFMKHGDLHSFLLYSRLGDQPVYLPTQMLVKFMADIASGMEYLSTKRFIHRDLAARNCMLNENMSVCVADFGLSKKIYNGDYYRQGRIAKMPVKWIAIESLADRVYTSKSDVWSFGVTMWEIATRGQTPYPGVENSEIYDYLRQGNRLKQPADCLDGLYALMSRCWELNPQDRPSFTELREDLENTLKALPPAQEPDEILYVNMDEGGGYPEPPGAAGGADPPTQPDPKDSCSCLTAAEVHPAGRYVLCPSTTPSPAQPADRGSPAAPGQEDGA
In words: Axl phosphorylation inhibition ELISA in HEK293T cells transfected with NanoLuc-tagged AXL. The settings on record: 1 h compound incubation, media (OptiMEM). The test is classed as cell-based. An outline of the steps: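 HEK293T cells transiently transfected one day earlier with NanoLuc-tagged AXL were exposed to 22-point 2-fold compound dilutions for 1 h at 37° C (70,000 cells/well), then lysed. Lysates captured on anti-phospho-tyrosine coated plates for 2 h; bound p-AXL read by NanoLuc luminescence; IC50 from 4-parameter logistic fit.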

Test [2] addresses T2, Axl (Homo sapiens, UniProt P30530).
T2 sequence (P30530 26-894): T1 sequence (P30530 26-894)
In words: Biochemical potency, HTRF KinEASE-TK kinase assay. Further details: purchased Invitrogen. The following applies: 5 nM AXL, 700 μM ATP. In outline: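 HTRF 665/620 readout after a 2 h RT kinase reaction (final 700 μM ATP, 800 nM biotinylated TK substrate, 1% DMSO, HEPES pH 7.4 buffer) gave percent activity. Final enzyme was 5 nM for AXL, 1 nM for TYRO3 or MER, each preincubated 1 h with compound.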
On the technique in general: Time-resolved FRET reads energy transfer from a long-lived donor to a nearby acceptor.

Each structure is given as a SMILES string.

As usually defined, the IC50 is the concentration needed to halve the response being measured. As to `c1cc2c(c(-c3ccc(-c4c[nH]c5ncc(-c6ccc7c(c6)CC[C@@H](N6C8COCC6C8)CC7)cc45)cc3)n1)OCCO2` [Example 194, 6-[(7S)-2-[3-(4-{2H,3H-[1,4]Dioxino[2,3-c]pyridin-5-yl}phenyl)-1H-pyrrolo[2,3-b]pyridin-5-yl]-6,7,8,9-tetrahydro-5H-benzo[7]annulen-7-yl]-3-oxa-6-azabicyclo[3.1.1]heptane], the IC50 in test [1] and in test [2] was < 0.1 µM each time.

Take `Cc1cccc(F)c1-c1ccc(-c2c[nH]c3ncc(-c4ccc5c(c4)CC[C@@H](N4C6COCC4C6)CC5)cc23)cc1` [Example 84, 6-[(7S)-2-(3-{2′-Fluoro-6′-methyl-[1,1′-biphenyl]-4-yl}-1H-pyrrolo[2,3-b]pyridin-5-yl)-6,7,8,9-tetrahydro-5H-benzo[7]annulen-7-yl]-3-oxa-6-azabicyclo[3.1.1]heptane]: the IC50 was > 1 µM in test [1] and < 0.1 µM in test [2].

Take `Cc1cccnc1-c1cccc(-c2n[nH]c3ncc(-c4ccc5c(c4)CC[C@@H](N4C6COCC4C6)CC5)cc23)c1` [Example 81, 6-[(7S)-2-{3-[3-(3-Methylpyridin-2-yl)phenyl]-1H-pyrazolo[3,4-b]pyridin-5-yl}-6,7,8,9-tetrahydro-5H-benzo[7]annulen-7-yl]-3-oxa-6-azabicyclo[3.1.1]heptane]: the IC50 in test [1] and in test [2] was < 0.1 µM each time.

As for `COc1ccnc(-c2ccc(-c3n[nH]c4ncc(-c5ccc6c(c5)CC[C@@H](N5C7COCC5C7)CC6)cc34)cc2)c1OC` [Example 152, 6-[(7S)-2-{3-[4-(3,4-Dimethoxypyridin-2-yl)phenyl]-1H-pyrazolo[3,4-b]pyridin-5-yl}-6,7,8,9-tetrahydro-5H-benzo[7]annulen-7-yl]-3-oxa-6-azabicyclo[3.1.1]heptane], the IC50 in test [1] and in test [2] was < 0.1 µM throughout.

In the case of `Cc1cc(C)c(-c2ccc(-c3c[nH]c4ncc(-c5ccc6c(c5)CC[C@@H](N5C7COCC5C7)CC6)cc34)cc2)cn1` [Example 196, 6-[(7S)-2-{3-[4-(4,6-Dimethylpyridin-3-yl)phenyl]-1H-pyrrolo[2,3-b]pyridin-5-yl}-6,7,8,9-tetrahydro-5H-benzo[7]annulen-7-yl]-3-oxa-6-azabicyclo[3.1.1]heptane], the figures for the IC50 in test [1] and in test [2] were 0.1 to 1 µM and < 0.1 µM, respectively.

With `Cc1ccc(C)c(-c2ccc(-c3c[nH]c4ncc(-c5ccc6c(c5)CC[C@@H](N5C7COC[C@H]5C7)CC6)cc34)c(F)c2)n1` [Example 144, (1R)-6-[(7S)-2-{3-[4-(3,6-Dimethylpyridin-2-yl)-2-fluorophenyl]-1H-pyrrolo[2,3-b]pyridin-5-yl}-6,7,8,9-tetrahydro-5H-benzo[7]annulen-7-yl]-3-oxa-6-azabicyclo[3.1.1]heptane], the IC50 in test [1] and in test [2] was < 0.1 µM throughout.

`c1cc2c(c(-c3ccc(-c4n[nH]c5ncc(-c6ccc7c(c6)CC[C@@H](N6C8COCC6C8)CC7)cc45)cc3)n1)NCCO2` [Example 150, 6-[(7S)-2-[3-(4-{2H,3H,4H-Pyrido[4,3-b][1,4]oxazin-5-yl}phenyl)-1H-pyrazolo[3,4-b]pyridin-5-yl]-6,7,8,9-tetrahydro-5H-benzo[7]annulen-7-yl]-3-oxa-6-azabicyclo[3.1.1]heptane]: the results for the IC50 in test [1] and in test [2] were 0.1 to 1 µM and < 0.1 µM, respectively.

Take `Cc1ccc(C#N)c(-c2ccc(-c3n[nH]c4ncc(-c5ccc6c(c5)CC[C@@](C)(N5CCC[C@H]5C)CC6)cc34)cc2)n1` [Example 71, 6-Methyl-2-(4-{5-[(7S)-7-methyl-7-[(2R)-2-methylpyrrolidin-1-yl]-6,7,8,9-tetrahydro-5H-benzo[7]annulen-2-yl]-1H-pyrazolo[3,4-b]pyridin-3-yl}phenyl)pyridine-3-carbonitrile]: the IC50 in test [1] and in test [2] was < 0.1 µM throughout.

For the molecule `C[C@@H]1CCCN1[C@@]1(C)CCc2ccc(-c3cnc4[nH]nc(-c5ccc(-c6ncccc6C#N)cc5)c4c3)cc2CC1` [Example 66, 2-(4-{5-[(7S)-7-Methyl-7-[(2R)-2-methylpyrrolidin-1-yl]-6,7,8,9-tetrahydro-5H-benzo[7]annulen-2-yl]-1H-pyrazolo[3,4-b]pyridin-3-yl}phenyl)pyridine-3-carbonitrile], the IC50 in test [1] and in test [2] was < 0.1 µM each time.

Regarding `Cc1cccnc1-c1ccc(-c2c[nH]c3ncc(-c4ccc5c(c4)CC[C@@H](N4C6COCC4C6)CC5)cc23)c(F)c1` [Example 153, 6-[(7S)-2-{3-[2-Fluoro-4-(3-methylpyridin-2-yl)phenyl]-1H-pyrrolo[2,3-b]pyridin-5-yl}-6,7,8,9-tetrahydro-5H-benzo[7]annulen-7-yl]-3-oxa-6-azabicyclo[3.1.1]heptane], the IC50 in test [1] and in test [2] was < 0.1 µM each time.

`Cc1ccc(C)c(-c2ccc(-c3n[nH]c4ncc(-c5ccc6c(c5)CC[C@@H](N5CCCC5)CC6)cc34)cc2)n1` [Example 139, 3,6-Dimethyl-2-(4-{5-[(7S)-7-(pyrrolidin-1-yl)-6,7,8,9-tetrahydro-5H-benzo[7]annulen-2-yl]-1H-pyrazolo[3,4-b]pyridin-3-yl}phenyl)pyridine]: the IC50 in test [1] and in test [2] was < 0.1 µM in each case.

Regarding `Cc1ccc(-c2ccc(-c3c[nH]c4ncc(-c5ccc6c(c5)CC[C@@H](N5C7COCC5C7)CC6)cc34)cc2)c(C)n1` [Example 73, 6-[(7S)-2-{3-[4-(2,6-Dimethylpyridin-3-yl)phenyl]-1H-pyrrolo[2,3-b]pyridin-5-yl}-6,7,8,9-tetrahydro-5H-benzo[7]annulen-7-yl]-3-oxa-6-azabicyclo[3.1.1]heptane], the IC50 in test [1] is 0.1 to 1 µM; in test [2], < 0.1 µM.

On to `Cc1ccc(C)c(-c2ccc(-c3c[nH]c4ncc(-c5ccc6c(c5)CC[C@@H](N5C7COCC5C7)CC6)cc34)cc2C)n1` [Example 191, 6-[(7S)-2-{3-[4-(3,6-Dimethylpyridin-2-yl)-3-methylphenyl]-1H-pyrrolo[2,3-b]pyridin-5-yl}-6,7,8,9-tetrahydro-5H-benzo[7]annulen-7-yl]-3-oxa-6-azabicyclo[3.1.1]heptane], for which the IC50 in test [1] and in test [2] was < 0.1 µM each time.

As to `Cc1cccnc1-c1ncc(-c2c[nH]c3ncc(-c4ccc5c(c4)CC[C@@H](N4C6COCC4C6)CC5)cc23)cn1` [Example 38, 6-[(7S)-3-[3-[2-(3-Methylpyridin-2-yl)pyrimidin-5-yl]-1H-pyrrolo[2,3-b]pyridin-5-yl]-6,7,8,9-tetrahydro-5H-benzo[7]annulen-7-yl]-3-oxa-6-azabicyclo[3.1.1]heptane], the IC50 in test [1] and in test [2] was < 0.1 µM in each case.

On to `Cc1cccnc1-c1ccc(-c2c[nH]c3nnc(-c4ccc5c(c4)CC[C@@](C)(N4CCC[C@H]4C)CC5)cc23)cc1` [Example 18, 3-[(7S)-7-Methyl-7-[(2R)-2-methylpyrrolidin-1-yl]-5,6,8,9-tetrahydrobenzo[7]annulen-3-yl]-5-[4-(3-methylpyridin-2-yl)phenyl]-7H-pyrrolo[2,3-c]pyridazine], for which the IC50 in test [1] and in test [2] was < 0.1 µM each time.

These data come from patent US12195482B1 (Arcus Biosciences, Inc., priority 2022, dated 2025).
